{"source": "patent US11564394B2", "about": "“Distorted gold (I)-phosphine complexes and methods for use as antifungal agents” (University of Kentucky Research Foundation, priority 2019, dated 2023)", "key": {"[1]": {"test_system": "C. albicans ATCC 10231 (strain B)", "description": "(§1) The protocol for time-kill assays followed methods previously described with minor modifications.^34,90 Overnight cultures were grown in YEPD medium at 35° C. with shaking at 200 rpm. The overnight cultures were diluted in RPMI 1640 medium to an OD600 of 0.125 (˜x10^6 CFU/mL). Then, 200 μL of cells were added to 4.8 mL of RPMI 1640 medium in sterile culture tubes to afford a fungal cell concentration ˜1×10^5 CFU/mL. Compounds were then added to the fungal cells. […] Treated fungal cultures were incubated in the culture tubes at 35° C. with 200 rpm shaking for 24 h. Samples were aliquoted from the different treatments at regular time points (0, 3, 6, 9, 12, and 24 h) and plated in duplicate onto PDA plates. For each time point, cultures were vortexed, 100 μL of culture was aspirated, and 10-fold serial dilutions were made in sterile ddH2O. From the appropriate dilutions, 100 μL of fungal suspension was spread on agar plates and incubated at 35° C. for 48 h before colony counts were determined. Only plates containing between 30 and 300 colonies were counted, making […] the limit of detection. At 24 h, 50 μL of sterile 2 mM resazurin in phosphate buffered saline (PBS) was added to the treatments and incubated at 35° C. with 200 rpm shaking for 2 h in the dark for visual inspection."}, "[2]": {"test_system": "C. auris AR Bank #0384 (strain K)", "description": "as §1"}, "[3]": {"test_system": "C. albicans ATCC 10231 (strain B)", "conditions": "subcultures exposed to ½ MIC"}, "[4]": {"test_system": "C. glabrata ATCC 2001 (strain H)", "conditions": "subcultures exposed to ½ MIC"}, "[5]": {"test_system": "Candida strains B, H, K and L", "conditions": "for mode of killing (time-kill): 1× and 2×MIC, 24 h; for decrease of fungal colony forming units (CFU): by the 3 h time point, no increase over 24 h", "procedure": "The protocol for time-kill assays followed methods previously described with minor modifications.^34,90 Overnight cultures were grown in YEPD medium at 35° C. with shaking at 200 rpm. The overnight cultures were diluted in RPMI 1640 medium to an OD600 of 0.125 (˜x10^6 CFU/mL). Then, 200 μL of cells were added to 4.8 mL of RPMI 1640 medium in sterile culture tubes to afford a fungal cell concentration ˜1×10^5 CFU/mL. Compounds were then added to the fungal cells. […] Treated fungal cultures were incubated in the culture tubes at 35° C. with 200 rpm shaking for 24 h. Samples were aliquoted from the different treatments at regular time points (0, 3, 6, 9, 12, and 24 h) and plated in duplicate onto PDA plates. For each time point, cultures were vortexed, 100 μL of culture was aspirated, and 10-fold serial dilutions were made in sterile ddH2O. From the appropriate dilutions, 100 μL of fungal suspension was spread on agar plates and incubated at 35° C. for 48 h before colony counts were determined. Only plates containing between 30 and 300 colonies were counted, making 30 CFU/mL the limit of detection. At 24 h, 50 μL of sterile 2 mM resazurin in phosphate buffered saline (PBS) was added to the treatments and incubated at 35° C. with 200 rpm shaking for 2 h in the dark for visual inspection."}, "[6]": {"test_system": "murine and human red blood cells (RBCs)", "description": "The RBCs were resuspended in PBS to achieve a cell concentration of on the order of 10^7 cells/mL. Compounds were dissolved at concentration of 3.14 mg/mL (200×) in DMSO. Serial double dilutions were made in DMSO. A 1:100 dilution of compound in PBS was added to 100 of RBCs in a 96-well plate (total volume of 200 μL). Compounds were tested in the range of 0.06-15.6 μg/mL in quadruplicate with 0.5% DMSO and ˜5×10^6 RBCs per tube. The RBCs were also treated with 1% Triton-X® (positive control) and PBS (negative control). The RBCs were treated for 30 min at 37° C. and the absorbance was read at 595 nm. Hemolysis is visually observed by a decrease in optical density of the wells (turbid, dark red to transparent pink). Percent hemolysis (FIG. 5A-B) was calculated using this equation after subtraction of the background absorbance ([…]): […]"}, "patients": {"test_system": "patients", "conditions": "6 mg daily dose, oral; cited from earlier work"}, "[7]": {"test_system": "C. auris AR Bank #0390 (strain L)", "assay": "Time-kill assay", "type": "cell-based, Candida auris", "conditions": "1×MIC"}, "Candida biofilms": {"test_system": "Candida biofilms", "conditions": "FDA-approved antifungal agents; cited from earlier work"}}, "note": "Where two headings read alike, the source gives them in different places.", "data": [{"compound": "bis-[1,2-bis[(2S,5S)-2,5-dimethylphospholano]benzene]gold(I) [Compound 4]", "values": [{"measurement": "time at which the limit of detection was reached", "setting": "[1]; 1×MIC, limit of detection 30 CFU/mL", "value": 9, "unit": "h"}, {"measurement": "time at which the limit of detection was reached", "setting": "[2]; concentration not specified (tested at 1× and 2×MIC), failed to reach the limit", "value": "> 24", "unit": "h"}, {"measurement": "changes in MIC values over fifteen serial passages", "setting": "[3]", "value": "no significant changes in MIC values"}, {"measurement": "changes in MIC values over fifteen serial passages", "setting": "[4]", "value": "no significant changes in MIC values"}, {"measurement": "mode of killing (time-kill)", "setting": "[5]", "value": "fungicidal"}, {"measurement": "decrease of fungal colony forming units (CFU)", "setting": "[5]", "value": 102, "unit": "CFU/mL"}]}, {"compound": "CC(=O)OC[C@H]1O[C@@H]([S-])[C@H](OC(C)=O)[C@@H](OC(C)=O)[C@@H]1OC(C)=O.CCP(CC)CC.[Au+]", "note": "[Auranofin, auranofin, reference compound]", "values": [{"measurement": "hemolytic activity", "setting": "[6]; at 15.6 μg/mL", "value": "no hemolytic activity"}, {"measurement": "tolerability in patients", "setting": "patients", "value": "well-tolerated"}]}, {"compound": "bis-[1,2-bis[(2R,5R)-2,5-dimethylfphospholano]benzene]gold(1) [Compound 6]", "values": [{"measurement": "time at which the limit of detection was reached", "setting": "[1]; 2×MIC", "value": 3, "unit": "h"}, {"measurement": "time at which the limit of detection was reached", "setting": "[2]; 1×MIC", "value": 6, "unit": "h"}, {"measurement": "changes in MIC values over fifteen serial passages", "setting": "[3]", "value": "no significant changes in MIC values"}, {"measurement": "changes in MIC values over fifteen serial passages", "setting": "[4]", "value": "no significant changes in MIC values"}, {"measurement": "mode of killing (time-kill)", "setting": "[5]", "value": "fungicidal"}, {"measurement": "decrease of fungal colony forming units (CFU)", "setting": "[5]", "value": 102, "unit": "CFU/mL"}]}, {"compound": "C[C@@H]1[C@H](O)[C@@H](C)/C=C/C=C/C=C/C=C/C=C/C=C/C=C/[C@H](O[C@@H]2O[C@H](C)[C@@H](O)[C@H](N)[C@@H]2O)C[C@@H]2O[C@](O)(C[C@@H](O)C[C@@H](O)[C@H](O)CC[C@@H](O)C[C@@H](O)CC(=O)O[C@H]1C)C[C@H](O)[C@H]2C(=O)O", "note": "[AmB, amphotericin B, reference compound]", "values": [{"measurement": "time at which the limit of detection was reached", "setting": "[7]", "value": 9, "unit": "h"}, {"measurement": "hemolysis", "setting": "[6]; at 7.8 μg/mL", "value": "30-60%"}, {"measurement": "hemolysis", "setting": "[6]; at 15.6 μg/mL", "value": 100, "unit": "%"}, {"measurement": "SMIC90 (literature)", "setting": "Candida biofilms", "value": "0.5 to 128", "unit": "µg/mL"}]}]}
